One data set addresses T1, Androgen receptor (Homo sapiens, UniProt P10275).
T1 sequence (P10275 whole entry): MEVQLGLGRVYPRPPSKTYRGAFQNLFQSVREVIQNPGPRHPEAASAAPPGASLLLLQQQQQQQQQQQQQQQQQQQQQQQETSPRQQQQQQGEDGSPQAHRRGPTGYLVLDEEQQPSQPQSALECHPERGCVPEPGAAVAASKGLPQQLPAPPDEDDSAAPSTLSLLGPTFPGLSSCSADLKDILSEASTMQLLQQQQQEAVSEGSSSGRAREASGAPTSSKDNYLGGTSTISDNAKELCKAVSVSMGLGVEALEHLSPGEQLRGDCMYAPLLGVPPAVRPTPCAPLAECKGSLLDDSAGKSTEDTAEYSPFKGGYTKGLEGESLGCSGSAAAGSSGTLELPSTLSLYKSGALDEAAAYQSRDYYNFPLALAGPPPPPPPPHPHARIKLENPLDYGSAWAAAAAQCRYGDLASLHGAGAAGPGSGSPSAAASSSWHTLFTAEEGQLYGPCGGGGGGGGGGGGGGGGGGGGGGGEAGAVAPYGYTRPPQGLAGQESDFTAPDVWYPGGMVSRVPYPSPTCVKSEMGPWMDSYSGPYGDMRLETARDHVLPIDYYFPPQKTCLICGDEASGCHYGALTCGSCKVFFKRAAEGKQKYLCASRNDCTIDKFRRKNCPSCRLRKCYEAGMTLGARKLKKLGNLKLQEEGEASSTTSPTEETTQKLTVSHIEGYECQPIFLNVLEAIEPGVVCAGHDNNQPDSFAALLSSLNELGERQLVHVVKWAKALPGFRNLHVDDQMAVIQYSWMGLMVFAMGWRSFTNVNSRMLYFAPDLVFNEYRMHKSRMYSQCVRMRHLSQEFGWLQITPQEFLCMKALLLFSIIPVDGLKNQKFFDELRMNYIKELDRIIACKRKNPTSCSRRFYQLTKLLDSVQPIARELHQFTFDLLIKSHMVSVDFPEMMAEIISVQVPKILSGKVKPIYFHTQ
As to the kind of experiment: biochemical.

Another data set concerns the target Glucocorticoid receptor (Homo sapiens, UniProt P04150). Put plainly: biochemical.
The target of data set [1] is T2, Mineralocorticoid receptor (Homo sapiens, UniProt P08235).
T2 sequence (P08235 whole entry): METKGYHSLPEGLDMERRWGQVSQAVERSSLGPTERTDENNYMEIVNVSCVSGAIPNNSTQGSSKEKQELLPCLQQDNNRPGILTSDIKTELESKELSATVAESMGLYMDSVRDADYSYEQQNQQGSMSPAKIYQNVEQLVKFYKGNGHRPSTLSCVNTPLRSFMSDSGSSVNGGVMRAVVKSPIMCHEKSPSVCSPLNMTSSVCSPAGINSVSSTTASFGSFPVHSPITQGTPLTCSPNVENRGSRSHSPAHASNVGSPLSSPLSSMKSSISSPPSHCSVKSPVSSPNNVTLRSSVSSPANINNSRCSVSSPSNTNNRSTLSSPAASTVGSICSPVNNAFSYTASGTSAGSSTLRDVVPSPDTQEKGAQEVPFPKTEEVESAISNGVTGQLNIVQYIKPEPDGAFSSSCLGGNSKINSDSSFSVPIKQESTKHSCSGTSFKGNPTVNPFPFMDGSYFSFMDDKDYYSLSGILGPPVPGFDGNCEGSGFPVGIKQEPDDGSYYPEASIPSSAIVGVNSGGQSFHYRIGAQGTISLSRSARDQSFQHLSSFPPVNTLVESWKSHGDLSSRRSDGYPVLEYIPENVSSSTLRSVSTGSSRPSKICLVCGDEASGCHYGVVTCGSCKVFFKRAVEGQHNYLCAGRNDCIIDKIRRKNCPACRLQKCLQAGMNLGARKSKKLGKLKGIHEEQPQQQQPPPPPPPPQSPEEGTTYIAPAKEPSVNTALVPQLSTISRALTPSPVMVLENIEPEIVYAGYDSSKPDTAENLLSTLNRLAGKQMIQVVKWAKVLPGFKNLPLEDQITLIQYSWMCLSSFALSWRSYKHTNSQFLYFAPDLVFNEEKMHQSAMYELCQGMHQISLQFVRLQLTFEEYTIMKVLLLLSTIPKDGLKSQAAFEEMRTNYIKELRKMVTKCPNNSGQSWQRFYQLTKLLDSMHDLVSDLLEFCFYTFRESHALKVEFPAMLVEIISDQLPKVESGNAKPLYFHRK
Description: Antagonist activity at human mineralocorticoid receptor expressed in COS1 cells after 1 day by luciferase reporter gene assay

Data set [2] has as its target T2, Mineralocorticoid receptor. As to the kind of experiment: biochemical.
Description: Displacement of [3H]aldosterone from human mineralocorticoid receptor expressed in 293 cells after 16 hrs by scintillation counting
The target of a further data set is T3, Progesterone receptor (Homo sapiens, UniProt P06401).
T3 sequence (P06401 whole entry): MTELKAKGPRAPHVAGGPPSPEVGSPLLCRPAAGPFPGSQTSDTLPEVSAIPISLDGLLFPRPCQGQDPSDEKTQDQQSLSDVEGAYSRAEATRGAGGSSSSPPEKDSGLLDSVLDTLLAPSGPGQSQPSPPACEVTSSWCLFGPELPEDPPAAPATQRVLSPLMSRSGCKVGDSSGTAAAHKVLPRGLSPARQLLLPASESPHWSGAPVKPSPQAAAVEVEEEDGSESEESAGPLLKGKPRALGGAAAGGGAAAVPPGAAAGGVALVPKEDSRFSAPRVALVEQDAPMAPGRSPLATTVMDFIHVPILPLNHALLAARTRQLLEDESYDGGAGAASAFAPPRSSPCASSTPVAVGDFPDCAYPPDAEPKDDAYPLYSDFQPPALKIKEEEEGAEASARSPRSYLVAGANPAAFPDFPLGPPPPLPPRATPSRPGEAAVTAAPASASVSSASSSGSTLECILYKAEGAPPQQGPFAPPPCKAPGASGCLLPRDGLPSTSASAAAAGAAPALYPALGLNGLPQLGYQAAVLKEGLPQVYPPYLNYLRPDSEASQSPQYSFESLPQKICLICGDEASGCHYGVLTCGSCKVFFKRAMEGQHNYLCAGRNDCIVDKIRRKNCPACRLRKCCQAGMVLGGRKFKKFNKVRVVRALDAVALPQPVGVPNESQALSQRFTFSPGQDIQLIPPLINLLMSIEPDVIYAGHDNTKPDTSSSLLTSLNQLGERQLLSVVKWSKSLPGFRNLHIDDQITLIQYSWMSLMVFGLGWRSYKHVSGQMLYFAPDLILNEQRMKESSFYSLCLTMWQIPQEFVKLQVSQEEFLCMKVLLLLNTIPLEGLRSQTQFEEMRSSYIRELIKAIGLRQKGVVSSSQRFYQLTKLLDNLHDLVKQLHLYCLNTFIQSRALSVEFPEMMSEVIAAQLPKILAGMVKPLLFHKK
As to the kind of experiment: Displacement of [[3H]-Progesterone from progesterone receptor (unknown origin) expressed in 293 cells after 16 hrs by scintillation counting. In kind it is cell-based.

Data set [3] in a line: Lipophilicity, log D of the compound at pH 7.4 by HPLC analysis. The note with it: buffer. In kind it is physicochemical.

Glucocorticoid receptor, sequence (P04150 whole entry, looked up): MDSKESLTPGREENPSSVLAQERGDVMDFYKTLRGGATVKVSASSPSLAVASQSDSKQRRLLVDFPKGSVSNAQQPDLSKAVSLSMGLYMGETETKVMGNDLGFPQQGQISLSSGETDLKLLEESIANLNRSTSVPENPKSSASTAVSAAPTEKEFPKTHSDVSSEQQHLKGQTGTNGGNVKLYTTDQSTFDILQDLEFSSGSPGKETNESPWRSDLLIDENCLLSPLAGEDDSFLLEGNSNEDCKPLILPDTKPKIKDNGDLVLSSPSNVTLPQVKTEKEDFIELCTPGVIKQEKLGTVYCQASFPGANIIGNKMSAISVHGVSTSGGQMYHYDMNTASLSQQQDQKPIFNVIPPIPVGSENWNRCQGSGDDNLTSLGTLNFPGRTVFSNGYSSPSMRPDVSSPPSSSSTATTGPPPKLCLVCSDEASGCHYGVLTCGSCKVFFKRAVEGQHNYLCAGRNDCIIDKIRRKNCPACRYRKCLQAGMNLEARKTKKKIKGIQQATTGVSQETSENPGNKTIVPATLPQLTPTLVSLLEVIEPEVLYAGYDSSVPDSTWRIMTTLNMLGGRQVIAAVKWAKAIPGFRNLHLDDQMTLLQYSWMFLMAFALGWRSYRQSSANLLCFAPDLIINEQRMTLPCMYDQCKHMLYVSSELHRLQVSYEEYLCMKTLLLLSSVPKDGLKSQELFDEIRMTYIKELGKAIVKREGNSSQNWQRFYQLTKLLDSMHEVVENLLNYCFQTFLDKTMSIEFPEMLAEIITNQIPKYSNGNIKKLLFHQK
Description for Androgen receptor: Displacement of [3H]testosterone from androgen receptor (unknown origin) expressed in 293 cells after 16 hrs by scintillation counting
Description for Glucocorticoid receptor: Displacement of [3H]-Dexamethasone from glucocorticoid receptor (unknown origin) expressed in 293 cells after 16 hrs by scintillation counting

Take `Cc1nn(C)c(-c2ccc(F)cc2F)c1-c1ccc2c(c1)NC(=O)CO2`: the half-inhibitory concentration (IC50) on Androgen receptor was more than 10 µM; against Glucocorticoid receptor it was 2.3 µM; in data set [1], 0.6 µM; in data set [2] it was 0.19 µM; at Progesterone receptor it was 9.3 µM.
As to `CCn1nc(C)c(-c2ccc3c(c2)NC(=O)CO3)c1-c1ccc(F)cc1`, the IC50 at Androgen receptor was more than 10 µM; against Glucocorticoid receptor it was 5.6 µM; in data set [1], 0.95 µM; in data set [2] it was 0.51 µM; on Progesterone receptor it was more than 10 µM.
Consider `Cc1nn(CC(F)(F)CCO)c(-c2ccc(F)cc2)c1-c1ccc2c(c1)NC(=O)CO2`, for which the IC50 on Androgen receptor was more than 10 µM; against Glucocorticoid receptor, 1.3 µM; in data set [1], 0.54 µM; in data set [2] it was 0.038 µM; at Progesterone receptor, more than 10 µM. The same compound had a log distribution coefficient (logD) in data set [3] of 2.11.
Consider `Cc1nn(CCC#N)c(-c2ccc(F)cc2)c1-c1ccc2c(c1)NC(=O)CO2`, for which the IC50 on Androgen receptor is more than 10 µM; against Glucocorticoid receptor, 4.6 µM; in data set [1] it was 0.49 µM; in data set [2], 0.53 µM; on Progesterone receptor it was 5.7 µM. In addition, the pH-dependent lipophilicity (logD) in data set [3] came to 1.89.
Take `CC(=O)NCCn1nc(C)c(-c2ccc3c(c2)NC(=O)CO3)c1-c1ccc(F)cc1`: in data set [2], the IC50 was more than 10 µM.
Take `Cc1nn(CCCCO)c(-c2ccc(F)cc2)c1-c1ccc2c(c1)NC(=O)CO2`: the IC50 against Androgen receptor is more than 10 µM; at Glucocorticoid receptor, 5.4 µM; in data set [1], 0.13 µM; in data set [2], 0.075 µM; at Progesterone receptor, more than 10 µM. This compound displayed a pH-dependent lipophilicity (logD) in data set [3] of 2.16.
In the case of `Cc1nn(CCNS(C)(=O)=O)c(-c2ccc(F)cc2)c1-c1ccc2c(c1)NC(=O)CO2`, the IC50 at Androgen receptor is more than 10 µM; against Glucocorticoid receptor it was more than 10 µM; in data set [1], 2 µM; in data set [2] it was 0.25 µM; at Progesterone receptor, more than 10 µM. The logD in data set [3] stood at 1.7.
For the compound `Cc1nn(-c2ccccc2)c(-c2ccc(F)cc2)c1-c1ccc2c(c1)NC(=O)CO2`, the half-inhibitory concentration (IC50) in data set [2] was more than 10 µM.
Turning to `Cc1nn(CCC(C)(F)F)c(-c2ccc(F)cc2)c1-c1ccc2c(c1)NC(=O)CO2`, the IC50 on Androgen receptor worked out at 9.2 µM; on Glucocorticoid receptor it was 0.37 µM; in data set [1], 0.018 µM; in data set [2], 0.01 µM; on Progesterone receptor, 4 µM.
As to `Cc1nn(Cc2ccccc2)c(-c2ccc(F)cc2)c1-c1ccc2c(c1)NC(=O)CO2`, the IC50 on Androgen receptor worked out at 5.6 µM; at Glucocorticoid receptor, 0.63 µM; in data set [1], 0.064 µM; in data set [2] it was 0.1 µM; at Progesterone receptor, 2 µM.
In the case of `CCCn1nc(C)c(-c2ccc3c(c2)NC(=O)CO3)c1-c1ccc(F)cc1`, the half-inhibitory concentration (IC50) against Androgen receptor is more than 10 µM; on Glucocorticoid receptor it was 1.6 µM; in data set [1] it was 0.18 µM; in data set [2], 0.081 µM; on Progesterone receptor it was 5.7 µM.
As to `CCCCn1nc(C)c(-c2ccc3c(c2)NC(=O)CO3)c1-c1ccc(F)cc1`, the IC50 against Androgen receptor came to 3.6 µM; against Glucocorticoid receptor, 1.4 µM; in data set [1], 0.045 µM; in data set [2], 0.022 µM; on Progesterone receptor, 4 µM.
With `Cc1cc(C2=C(c3ccc(F)cc3)C(=O)NC2C)cc2c1OCC(=O)N2` (stereo not given), the half-maximal inhibitory concentration (IC50) against Androgen receptor and on Progesterone receptor was more than 10 µM throughout.
On to `Cc1nn(CCC(F)(F)CO)c(-c2ccc(F)cc2)c1-c1ccc2c(c1)NC(=O)CO2`, for which the half-inhibitory concentration (IC50) at Androgen receptor was more than 10 µM; at Glucocorticoid receptor, 2.5 µM; in data set [1], 0.18 µM; in data set [2], 0.095 µM; on Progesterone receptor, more than 10 µM. Besides, the logD in data set [3] came to 2.34.
As for `Cc1nn(C)c(-c2ccc(F)cc2)c1-c1ccc2c(c1)NC(=O)CO2`, the IC50 against Androgen receptor was more than 10 µM; against Glucocorticoid receptor, 3.2 µM; in data set [1] it was 0.16 µM; in data set [2], 0.11 µM; at Progesterone receptor, 9.8 µM. This compound also gave a log distribution coefficient (logD) in data set [3] of 2.51.
Take `Cc1nn(CC(C)C)c(-c2ccc(F)cc2)c1-c1ccc2c(c1)NC(=O)CO2`: the half-maximal inhibitory concentration (IC50) came out at 3.7 µM against Androgen receptor; 0.39 µM on Glucocorticoid receptor; 0.049 µM in data set [1]; 0.06 µM in data set [2]; 4.3 µM on Progesterone receptor.
In the same order, the values of `Cc1onc(-c2ccc3c(c2)NC(=O)CO3)c1-c1ccc(F)cc1` are more than 10 µM, more than 10 µM, 1.4 µM, 0.71 µM and more than 10 µM.
On to `Cc1nn(CCCC(F)(F)F)c(-c2ccc(F)cc2)c1-c1ccc2c(c1)NC(=O)CO2`, for which the IC50 was more than 10 µM at Androgen receptor; 1.1 µM against Glucocorticoid receptor; 0.033 µM in data set [1]; 0.0084 µM in data set [2]; 6.8 µM at Progesterone receptor.
In the same order, the values of `Cn1ncc(-c2ccc3c(c2)NC(=O)CO3)c1-c1ccc(F)cc1` are more than 10 µM, more than 10 µM, 0.17 µM, 0.29 µM and more than 10 µM.
`Cc1[nH]nc(-c2ccc3c(c2)NC(=O)CO3)c1-c1ccc(F)cc1`: the IC50 against Androgen receptor was more than 10 µM; on Glucocorticoid receptor, more than 10 µM; in data set [2], 3.7 µM; at Progesterone receptor, 1.6 µM.
On to `Cc1nn(Cc2ccccn2)c(-c2ccc(F)cc2)c1-c1ccc2c(c1)NC(=O)CO2`, for which the half-inhibitory concentration (IC50) against Androgen receptor was more than 10 µM; against Glucocorticoid receptor, more than 10 µM; in data set [1], 0.99 µM; in data set [2], 2.8 µM; at Progesterone receptor, more than 10 µM. This compound returned a pH-dependent lipophilicity (logD) in data set [3] of 2.45.
With `Cc1cc(-c2c(C)nn(C)c2-c2ccc(F)cc2)cc2c1OCC(=O)N2`, the IC50 against Androgen receptor is more than 10 µM; at Glucocorticoid receptor, 2.5 µM; in data set [1], 0.35 µM; in data set [2], 0.15 µM; on Progesterone receptor, more than 10 µM.

One may read the IC50 as the midpoint of a concentration-inhibition curve. As a reminder, the logD is lipophilicity at a set pH, counting ionised and neutral species. A lower logD goes with lower lipophilicity.
